From patent US4675395A, “Cyclodextrin inclusion compound and process for its preparation” (Seiwa Technological Laboratories Limited, priority 1985, dated 1987)

Legend:
[1] = background statement; cited from earlier work
[2] = cited from earlier work
physchem = settings: water

In the case of `CC(C)c1cccc(=O)c(O)c1` [hinokitiol], the “bactericidal and bacteriostatic activity” value [1] is listed as “strong”, the “solubility in water at 25° C.” value [2] is listed as “about 0.12%” and the solubility (physchem) is listed as at most 5 mM.
